According to patent US20130303486A1, “Compositions Comprising Zoledronic Acid or Related Compounds for Relieving Pain Associated with Arthritis” (priority 2012, published 2013):
Like-named read-outs stand apart in the source and are kept apart here.

Experiments:
[1] = system: complex regional pain syndrome (CRPS), fracture hindpaw; assay: rat tibia fracture model of complex regional pain syndrome (CRPS): von Frey, weight bearing, edema, warmth; format: in vivo; details: oral 18 mg/m^2/day (3 mg/kg/day) for 28 days
Protocol: The effect of orally administered zoledronic acid was examined in the rat tibia fracture model of complex regional pain syndrome (CRPS). CRPS was induced in the rats by fracturing the right distal tibias of the animals and casting the fractured hindpaws for 4 weeks, as described in Guo T Z et al. (Pain. 2004; 108:95-107).
Animals were orally administered either vehicle (control) or zoledronic acid, in a dosage of 18 mg/m^2/day (3 mg/kg/day) for 28 days, starting on the day of fracture and casting. Drug was dissolved in distilled water and administered by gavage. Animals were fasted for 4 hours before and 2 hours after dosing. At the end of the 28-day period, casts were removed, and on the following day, the rats were tested for hindpaw pain, edema, and warmth.
Pain was assessed by measuring hyperalgesia, and weight bearing. […]
An incapacitance device (IITC Inc. Life Science, Woodland, Calif., USA) was used to measure hindpaw weight bearing, a postural effect of pain. […] Eight readings (excluding the highest and lowest ones) were averaged to calculate the bilateral hindpaw weight-bearing values. Weight bearing data were analyzed as the ratio between right (fracture) and left hindpaw weight bearing values ((2R/(R+L))×100%). […]
The temperature of the hindpaw was measured using a fine wire thermocouple (Omega, Stanford, Conn., USA) applied to the paw skin. […]

[2] = system: inflammatory pain (mechanical hyperalgesia), CFA-injected hind paw; format: in vivo, Sprague-Dawley rats
Protocol: The effect of orally administered zoledronic acid on inflammatory pain was examined using the rat complete Freund's adjuvant (CFA) model. Inflammatory pain was induced by injection of 100% CFA in a 75 μL volume into the left hind paws of Sprague-Dawley rats on day 0, followed by assessments on days 1-3. Animals were orally administered vehicle (control), zoledronic acid 18 mg/m^2 (or 3 mg/kg), zoledronic acid 120 mg/m^2 (or 20 mg/kg), or zoledronic acid 900 mg/m^2 (or 150 mg/kg) daily on days 1-3. Drug was dissolved in distilled water and prepared fresh daily. Animals were fasted prior to dosing. Under current FDA guidelines for extrapolating starting dosages from animals to humans, dosages expressed in mg/m^2 are considered equivalent between mammalian species. Thus, for example, 18 mg/m^2 in a rat is considered equivalent to 18 mg/m^2 in a human being, while 3 mg/kg in a rat may not be equivalent to 3 mg/kg in a human being.
Values for inflammatory pain (mechanical hyperalgesia) in the vehicle and drug-treated animals were obtained on day 0 prior to CFA injection, and at baseline and post-treatment on days 1-3. Pain was assessed using a digital Randall-Selitto device (dRS; IITC Life Sciences, Woodland Hills, Calif.). Animals were placed in a restraint sling that suspended the animal, leaving the hind limbs available for testing. Paw compression threshold was measured by applying increasing pressure to the plantar surface of the hind paw with a dome-shaped tip placed between the 3rd and 4th metatarsus. Pressure was applied gradually over approximately 10 seconds. Measurements were taken from the first observed nocifensive behavior of vocalization, struggle or withdrawal. A cut-off value of 300 g was used to prevent injury to the animal.
Reversal of inflammatory pain was calculated according to the formula:
% reversal=(Post-treatment−Post-CFA baseline)/(Pre-CFA baseline−Post-CFA baseline)×100.
The experiment was carried out using 9-10 animals per group.

O=P(O)(O)C(O)(Cn1ccnc1)P(=O)(O)O [zoledronic acid]
reversal of fracture induced pain (von Frey pain threshold) as compared to vehicle [1]: 77% | paw compression thresholds compared to vehicle ([2]; oral 18 mg/m^2, entire measurement period after 30 minutes from start of treatment): higher than for vehicle | paw compression thresholds compared to vehicle ([2]; oral 120 mg/m^2 (20 mg/kg) daily days 1-3, all time points): approximately equal or inferior to vehicle | toxicity ([2]; oral 900 mg/m^2 (150 mg/kg) daily days 1-3, all animals euthanized two days after cessation of dosing): significant toxicity | paw compression thresholds compared to vehicle ([2]; oral 900 mg/m^2, day three): greater than for vehicle | paw compression thresholds compared to vehicle ([2]; oral 900 mg/m^2, first two days of dosing): lower than vehicle
